Consider 21 molecules from patent US8580965B2, “Substituted sulfonamide compounds” (Gruenenthal GmbH, priority 2006, dated 2013).

One may read the inhibition as the change of the read-out against control, counted positive when it falls.

In experiment [1] the target is T1, human B1R receptor (bradykinin 1 receptor) (Homo sapiens, UniProt P46663).
T1 construct: host or cells: CHO K1 cells (hB1R cells)
T1 sequence (P46663 1-353): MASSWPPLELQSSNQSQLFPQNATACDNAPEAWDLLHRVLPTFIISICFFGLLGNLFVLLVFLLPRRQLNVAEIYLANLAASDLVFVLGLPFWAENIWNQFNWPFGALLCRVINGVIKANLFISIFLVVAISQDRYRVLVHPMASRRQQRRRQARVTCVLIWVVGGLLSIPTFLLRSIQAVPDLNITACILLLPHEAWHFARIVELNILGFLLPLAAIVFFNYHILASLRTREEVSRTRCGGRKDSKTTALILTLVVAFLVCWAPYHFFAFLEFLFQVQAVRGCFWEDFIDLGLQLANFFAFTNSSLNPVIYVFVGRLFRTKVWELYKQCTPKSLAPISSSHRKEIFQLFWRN
In words: FLIPR Ca2+ assay (Fluo-4) on CHO K1 cells stably transfected with the human B1R gene; % activation and % inhibition at 10 μM. The settings on record: CHO K1 hB1R cells, Ca2+ inflow after 0.5 nM Lys-Des-Arg9-bradykinin; for inhibition at 10 µM: CHO-K1, test substance 10 μM, read-out: B1R antagonism, human [10 μM] % inhibition. Type of experiment: cell-based. A digest of the protocol: (§1)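 Fluo-4 Ca2+ flux on FLIPR in stable hB1R or rB1R CHO K1 lines, two additions. Agonism: 10 µM compound versus 0.5 nM Lys-Des-Arg9-BK (human) or 100 nM Des-Arg9-BK (rat); antagonism: same agonists applied 10 min later, suppression expressed against maximum achievable inhibition.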

The target in experiment [2] is T2, B1R receptor of the rat (bradykinin 1 receptor) (Rattus norvegicus, UniProt P97583).
T2 construct: host or cells: CHO K1 cells (rB1R cells)
T2 sequence (P97583 1-337): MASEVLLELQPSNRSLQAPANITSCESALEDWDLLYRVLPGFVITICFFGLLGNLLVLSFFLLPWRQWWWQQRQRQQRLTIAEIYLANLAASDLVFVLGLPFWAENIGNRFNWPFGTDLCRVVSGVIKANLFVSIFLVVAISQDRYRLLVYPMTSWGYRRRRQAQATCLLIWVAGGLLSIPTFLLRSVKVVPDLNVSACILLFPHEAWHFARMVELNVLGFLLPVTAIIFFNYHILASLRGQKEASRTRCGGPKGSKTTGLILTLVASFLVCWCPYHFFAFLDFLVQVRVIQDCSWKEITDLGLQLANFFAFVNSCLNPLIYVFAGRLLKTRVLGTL
In words: FLIPR Ca2+ assay (Fluo-4) on CHO K1 cells stably transfected with the B1R gene of the rat; % activation and % inhibition at 10 μM. It counts as cell-based. The settings on record: CHO K1 rB1R cells, Ca2+ inflow after 100 nM Des-Arg9-bradykinin; for inhibition at 10 µM: CHO-K1, test substance 10 μM, read-out: B1R antagonism, rat [10 μM] % inhibition. A digest of the protocol: as §1

Counter-ions that a name gives are not always drawn.

For `O=C(COCC1CCCN1S(=O)(=O)c1cc(Cl)sc1Cl)N1CCC(O)(c2cccc(C(F)(F)F)c2)CC1` (stereo not drawn) [Example 227, 2-((1-(2,5-dichlorothiophen-3-ylsulfonyl)pyrrolidin-2-yl)methoxy)-1-(4-hydroxy-4-(3-(trifluoromethyl)phenyl)piperidin-1-yl)ethanone], the inhibition at 10 µM came out at 7.61% in experiment [1] and 80.9% in experiment [2].

For the molecule `COc1ccc(S(=O)(=O)N(C)CCOCC(=O)N2CCC(O)(c3ccccn3)CC2)cc1` [Example 42, N-{2-[2-(4′-hydroxy-3′,4′,5′,6′-tetrahydro-2′H-[2,4′]bipyridinyl-1′-yl)-2-oxo-ethoxy]-ethyl}-4-methoxy-N-methyl-phenylsulfonamide], the inhibition at 10 µM was 0.67% in experiment [1] and -38.1% in experiment [2].

Turning to `COc1ccc(S(=O)(=O)N2CCCC2COCC(=O)N2CCC(O)(c3ccccn3)CC2)cc1` (stereo not drawn) [Example 40, 1-(4′-hydroxy-3′,4′,5′,6′-tetrahydro-2′H-[2,4′]bipyridinyl-1′-yl)-2-[1-(4-methoxy-phenylsulfonyl)-pyrrolidin-2-ylmethoxy]-ethanone], the inhibition at 10 µM in experiment [1] is 1.84%; in experiment [2], 61.3%.

For `COc1cc(C)c(S(=O)(=O)N2CCCCC2COCC(=O)N2CCC(O)(c3ccc(Cl)c(C(F)(F)F)c3)CC2)c(C)c1` (stereo not drawn) [Example 246, 1-(4-(4-chloro-3-(trifluoromethyl)phenyl)-4-hydroxypiperidin-1-yl)-2-((1-(4-methoxy-2,6-dimethylphenylsulfonyl)piperidin-2-yl)methoxy)ethanone], the inhibition at 10 µM in experiment [1] is 103%; in experiment [2], 99%.

For `COc1cc(C)c(S(=O)(=O)N2CCC(OCC(=O)N3CCC(O)(c4ccccn4)CC3)C2)c(C)c1` (stereo not drawn) [Example 21, 1-(4′-hydroxy-3′,4′,5′,6′-tetrahydro-2′H-[2,4′]bipyridinyl-1′-yl)-2-[1-(4-methoxy-2,6-dimethyl-phenylsulfonyl)-pyrrolidin-3-yloxy]-ethanone], the figures for the inhibition at 10 µM in experiment [1] and in experiment [2] were 20.5% and 71.1%, respectively.

Take `Cc1cc(C)c(S(=O)(=O)N2Cc3ccccc3CC2COCC(=O)N2CCC(O)(c3ccccc3)CC2)c(C)c1` (stereo not drawn) [Example 101, 1-(4-hydroxy-4-phenylpiperidin-1-yl)-2-((2-(mesitylsulfonyl)-1,2,3,4-tetrahydroisoquinolin-3-yl)methoxy)ethanone]: the figures for the inhibition at 10 µM in experiment [1] and in experiment [2] were 102% and 85.4%, respectively.

On to `O=C(COCC1CCCCN1S(=O)(=O)c1c(Cl)cc(C(F)(F)F)cc1Cl)N1CCC(O)(c2cccc(C(F)(F)F)c2)CC1` (stereo not drawn) [Example 164, 2-((1-(2,6-dichloro-4-(trifluoromethyl)phenylsulfonyl)piperidin-2-yl)methoxy)-1-(4-hydroxy-4-(3-(trifluoromethyl)phenyl)piperidin-1-yl)ethanone], for which the figures for the inhibition at 10 µM in experiment [1] and in experiment [2] were 36.4% and 103%, respectively.

Consider `COc1cc(C)cc(C)c1S(=O)(=O)N1CCC(OCC(=O)N2CCC(O)(c3ccc(Br)cc3)CC2)C1` (stereo not drawn) [Example 264, 1-(4-(4-bromophenyl)-4-hydroxypiperidin-1-yl)-2-(1-(2-methoxy-4,6-dimethylphenylsulfonyl)pyrrolidin-3-yloxy)ethanone], for which the results for the inhibition at 10 µM in experiment [1] and in experiment [2] were 64.5% and 4.5%, respectively.

On to `O=C(COC1CCCN(S(=O)(=O)c2ccccc2)C1)N1CCC(O)(c2ccccn2)CC1` (stereo not drawn) [Example 51, 2-(1-phenylsulfonyl-piperidin-3-yloxy)-1-(4′-hydroxy-3′,4′,5′,6′-tetrahydro-2′H-[2,4′]bipyridinyl-1′-yl)-ethanone], for which the inhibition at 10 µM in experiment [1] was -9.71%; in experiment [2], 10.8%.

For `Cc1cc(S(=O)(=O)N2CCCCC2CCC(=O)N2CCC(O)(c3cccnc3)CC2)c(C)cc1Cl` (stereo not drawn) [Example 111, 3-(1-(4-chloro-2,5-dimethylphenylsulfonyl)piperidin-2-yl)-1-(4-hydroxy-4-(pyridin-3-yl)piperidin-1-yl)propan-1-one hydrochloride], the figures for the inhibition at 10 µM in experiment [1] and in experiment [2] were 97.8% and 85.9%, respectively.

As for `COc1cc(C)c(S(=O)(=O)N(C)CCOCC(=O)N2CCC(O)(c3cccs3)CC2)c(C)c1` [Example 86, N-{2-[2-(4-hydroxy-4-thiophen-2-yl-piperidin-1-yl)-2-oxo-ethoxy]-ethyl}-4-methoxy-2,6,N-trimethyl-phenylsulfonamide], the inhibition at 10 µM in experiment [1] came out at 106%; in experiment [2], 102%.

For `O=C(COCC1CCCCN1S(=O)(=O)c1ccccc1C(F)(F)F)N1CCC(O)(Cc2ccccc2)CC1` (stereo not drawn) [Example 176, 1-(4-benzyl-4-hydroxypiperidin-1-yl)-2-((1-(2-(trifluoromethyl)phenylsulfonyl)piperidin-2-yl)methoxy)ethanone], the values for the inhibition at 10 µM in experiment [1] and in experiment [2] were 91% and 102%, respectively.

Consider `COc1cc(C)c(S(=O)(=O)N(C)CCOCC(=O)N2CCC(O)(c3ccc(Cl)cc3)CC2)c(C)c1` [Example 136, N-(2-(2-(4-(4-chlorophenyl)-4-hydroxypiperidin-1-yl)-2-oxoethoxy)ethyl)-4-methoxy-N,2,6-trimethylphenylsulfonamide], for which the inhibition at 10 µM in experiment [1] was 93.6%; in experiment [2], 95.3%.

In the case of `O=C(COCC1Cc2ccccc2CN1S(=O)(=O)c1ccccc1)N1CCC(O)(c2cccnc2)CC1` (stereo not drawn) [Example 90, 2-(2-phenylsulfonyl-1,2,3,4-tetrahydro-isoquinolin-3-ylmethoxy)-1-(4′-hydroxy-3′,4′,5′,6′-tetrahydro-2′H-[3,4′]bipyridinyl-1′-yl)-ethanone], the results for the inhibition at 10 µM in experiment [1] and in experiment [2] were 13.8% and 31.1%, respectively.

Turning to `O=C(COCC1CCCN(S(=O)(=O)c2c(Cl)cc(Cl)cc2Cl)C1)N1CCC(O)(c2ccccc2)CC1` (stereo not drawn) [Example 255, 1-(4-hydroxy-4-phenylpiperidin-1-yl)-2-((1-(2,4,6-trichlorophenylsulfonyl)piperidin-3-yl)methoxy)ethanone], the inhibition at 10 µM turned out to be 82.5% in experiment [1] and 73.7% in experiment [2].

On to `Cc1cc(S(=O)(=O)N2CCCCC2CCC(=O)N2CCC(O)(c3cccnc3)CC2)c(C)cc1Cl` (stereo not drawn) [Example 122, 3-(1-(4-chloro-2,5-dimethylphenylsulfonyl)piperidin-2-yl)-1-(4-hydroxy-4-(pyridin-3-yl)piperidin-1-yl)propan-1-one], for which, in experiment [1] (test substance 10 μM), the “B1R antagonism, human [10 μM] % inhibition” value is given as 98.39%. Further, in experiment [2] (test substance 10 μM), the “B1R antagonism, rat [10 μM] % inhibition” value is reported as 97.87%.

`CN(CCOCC(=O)N1CCC(O)(c2ccccn2)CC1)S(=O)(=O)c1cc(F)ccc1F` [Example 71, 2,5-difluoro-N-{2-[2-(4′-hydroxy-3′,4′,5′,6′-tetrahydro-2′H-[2,4′]bipyridinyl-1′-yl)-2-oxo-ethoxy]-ethyl}-N-methyl-phenylsulfonamide]: the inhibition at 10 µM is -0.46% in experiment [1] and 4.46% in experiment [2].

With `CN(CCOCC(=O)N1CCC(O)(c2ccccn2)CC1)S(=O)(=O)c1ccc(OC(F)(F)F)cc1` [Example 20, N-{2-[2-(4′-hydroxy-3′,4′,5′,6′-tetrahydro-2′H-[2,4′]bipyridinyl-1′-yl)-2-oxo-ethoxy]-ethyl}-N-methyl-4-trifluoromethoxy-phenylsulfonamide], the inhibition at 10 µM is 22.2% in experiment [1] and 17.1% in experiment [2].

Consider `CN(CCOCC(=O)N1CCC(O)(c2ccc(Cl)cc2)CC1)S(=O)(=O)c1cc(F)cc(F)c1` [Example 93, N-(2-(2-(4-(4-chlorophenyl)-4-hydroxypiperidin-1-yl)-2-oxoethoxy)ethyl)-3,5-difluoro-N-methylphenylsulfonamide], for which the figures for the inhibition at 10 µM in experiment [1] and in experiment [2] were -12.1% and 6.49%, respectively.

For `O=C(CCC1CCCCN1S(=O)(=O)c1ccc2ccccc2c1)N1CCC(O)(c2cccnc2)CC1` (stereo not drawn) [Example 117, 1-(4-hydroxy-4-(pyridin-3-yl)piperidin-1-yl)-3-(1-(naphthalen-2-ylsulfonyl)piperidin-2-yl)propan-1-one], the values for the inhibition at 10 µM in experiment [1] and in experiment [2] were 84.8% and 24.2%, respectively.

As for `Cc1cc(C)c(S(=O)(=O)N2CCC(OCC(=O)N3CCC(O)(c4ccccn4)CC3)C2)c(C)c1` (stereo not drawn) [Example 30, 1-(4′-hydroxy-3′,4′,5′,6′-tetrahydro-2′H-[2,4′]bipyridinyl-1′-yl)-2-[1-(2,4,6-trimethyl-phenylsulfonyl)-pyrrolidin-3-yloxy]-ethanone], the values for the inhibition at 10 µM in experiment [1] and in experiment [2] were 6.86% and 17.4%, respectively.
